{"source": "patent US20230414569A1", "about": "“ORAL CANINE FEED AND METHODS FOR CONTROLLING FLEA INFESTATIONS IN A CANINE” (In the Bowl Animal Health, Inc., priority 2021, published 2023)", "key": {"[1]": {"experiment": "Plasma levels in dogs given medicated daily feed at different dosage levels (Example 6)", "assay_type": "in vivo, dog", "design": "unit not given here", "from_the_text": "Methods: A pool of dogs are to be preliminarily infested with ˜50 unfed adult R. sanguineus ticks in order to produce dogs that can suitably sustain a reliable infestation rate, defined as approximately 25% of attached ticks being live at the end of a 72-hour period. The 24 dogs with the highest live attached tick counts are to be selected for inclusion in the study. The 18 dogs with the highest live attached tick counts are to be randomly assigned to one of a control group and 2 treatment groups. The 6 dogs with the next highest live attached tick counts are to be assigned to a third treatment group.\nThe dogs are to be housed individually during the study period and are to have ad libitum access to water.\nEach dog in a treatment group (test groups 2-4) is to receive a medicated daily feed from study days 0-49. The medicated daily feed is to be offered to the dogs for 1 hour on each of days 0-49 according to test groups listed in TABLE 7.\nBlood is to be drawn at 0, 1, 3, 6, 10, 24, 48, 96, 168, 240 and 336 hours after the initial dose of isoxazoline is administered."}, "[2]": {"experiment": "Plasma concentration in dogs after daily oral liquid dosing (Example 1)", "assay_type": "in vivo", "conditions": "dog plasma, individual canines, 0.75 mg/kg/day oral days 0-29; Day -1 (pre-dose)", "protocol": "Each dog in the treatment group is to receive by mouth a liquid formulation of isoxazoline. The dosage of 0.75 mg/kg is to be administered to the dogs on each of days 0-29.\nDogs in the control group are not to receive isoxazoline or any other flea control treatment. Each dog in the treatment group is to be offered its daily ration (dry food) and the individual doses of liquid formulation are to be administered after the individual dog has eaten at least 25% of its total daily ration. After receiving the dose of isoxazoline, the dogs are to be allowed to continue eating. This mimics incorporating the isoxazoline in feed. Each dog in the treatment group and the control group is to be experimentally infested with 100 unfed adult fleas on test days 2, 5, 12, 20 and 35. Comb counts for live adult fleas are to be conducted on days 4, 7, 14, 21 and 37."}}, "data": [{"smiles": "O=C(CNC(=O)c1sc(C2=NO[C@@](c3cc(Cl)c(F)c(Cl)c3)(C(F)(F)F)C2)c2c1CCC2)NCC(F)F", "note": "[Mivorilaner, 3-[(5S)-5-(3,5-dichloro-4-fluorophenyl)-5-(trifluoromethyl)-4,5-dihydroisoxazol-3-yl]-N-[2-[(2,2-difluoroethyl)amino]-2-oxoethyl]-5,6-dihydro-4H-cyclopenta[c]thiophene-1-carboxamide]", "values": [{"measurement": "average plasma concentration of isoxazoline", "setting": "[1]; Group 2 - 106 mg/kg feed (anticipated 1 mg/kg daily), 1 hr", "value": 49.98}, {"measurement": "average plasma concentration of isoxazoline", "setting": "[1]; Group 2 - 106 mg/kg feed (anticipated 1 mg/kg daily), 3 hr", "value": 292.00}, {"measurement": "average plasma concentration of isoxazoline", "setting": "[1]; Group 2 - 106 mg/kg feed (anticipated 1 mg/kg daily), 6 hr", "value": 539.00}, {"measurement": "average plasma concentration of isoxazoline", "setting": "[1]; Group 2 - 106 mg/kg feed (anticipated 1 mg/kg daily), 10 hr", "value": 505.40}, {"measurement": "average plasma concentration of isoxazoline", "setting": "[1]; Group 2 - 106 mg/kg feed (anticipated 1 mg/kg daily), 24 hr", "value": 458.60}, {"measurement": "average plasma concentration of isoxazoline", "setting": "[1]; Group 2 - 106 mg/kg feed (anticipated 1 mg/kg daily), 48 hr", "value": 771.83}, {"measurement": "average plasma concentration of isoxazoline", "setting": "[1]; Group 2 - 106 mg/kg feed (anticipated 1 mg/kg daily), 96 hr", "value": 1570.50}, {"measurement": "average plasma concentration of isoxazoline", "setting": "[1]; Group 2 - 106 mg/kg feed (anticipated 1 mg/kg daily), 168 hr", "value": 2156.67}, {"measurement": "average plasma concentration of isoxazoline", "setting": "[1]; Group 2 - 106 mg/kg feed (anticipated 1 mg/kg daily), 240 hr", "value": 3003.33}, {"measurement": "average plasma concentration of isoxazoline", "setting": "[1]; Group 2 - 106 mg/kg feed (anticipated 1 mg/kg daily), 336 hr", "value": 3290.00}, {"measurement": "average plasma concentration of isoxazoline", "setting": "[1]; Group 3 - 106 mg/kg feed (anticipated 1 mg/kg daily), 1 hr", "value": 40.41}, {"measurement": "average plasma concentration of isoxazoline", "setting": "[1]; Group 3 - 106 mg/kg feed (anticipated 1 mg/kg daily), 3 hr", "value": 264.83}, {"measurement": "average plasma concentration of isoxazoline", "setting": "[1]; Group 3 - 106 mg/kg feed (anticipated 1 mg/kg daily), 6 hr", "value": 467.50}, {"measurement": "average plasma concentration of isoxazoline", "setting": "[1]; Group 3 - 106 mg/kg feed (anticipated 1 mg/kg daily), 10 hr", "value": 419.17}, {"measurement": "average plasma concentration of isoxazoline", "setting": "[1]; Group 3 - 106 mg/kg feed (anticipated 1 mg/kg daily), 24 hr", "value": 435.17}, {"measurement": "average plasma concentration of isoxazoline", "setting": "[1]; Group 3 - 106 mg/kg feed (anticipated 1 mg/kg daily), 48 hr", "value": 781.83}, {"measurement": "average plasma concentration of isoxazoline", "setting": "[1]; Group 3 - 106 mg/kg feed (anticipated 1 mg/kg daily), 96 hr", "value": 1596.67}, {"measurement": "average plasma concentration of isoxazoline", "setting": "[1]; Group 3 - 106 mg/kg feed (anticipated 1 mg/kg daily), 168 hr", "value": 2406.67}, {"measurement": "average plasma concentration of isoxazoline", "setting": "[1]; Group 3 - 106 mg/kg feed (anticipated 1 mg/kg daily), 240 hr", "value": 3026.67}, {"measurement": "average plasma concentration of isoxazoline", "setting": "[1]; Group 3 - 106 mg/kg feed (anticipated 1 mg/kg daily), 336 hr", "value": 3516.67}, {"measurement": "average plasma concentration of isoxazoline", "setting": "[1]; Group 4 - 318 mg/kg feed (anticipated 3 mg/kg daily), 1 hr", "value": 143.75}, {"measurement": "average plasma concentration of isoxazoline", "setting": "[1]; Group 4 - 318 mg/kg feed (anticipated 3 mg/kg daily), 3 hr", "value": 846.50}, {"measurement": "average plasma concentration of isoxazoline", "setting": "[1]; Group 4 - 318 mg/kg feed (anticipated 3 mg/kg daily), 6 hr", "value": 1265.67}, {"measurement": "average plasma concentration of isoxazoline", "setting": "[1]; Group 4 - 318 mg/kg feed (anticipated 3 mg/kg daily), 10 hr", "value": 1198.17}, {"measurement": "average plasma concentration of isoxazoline", "setting": "[1]; Group 4 - 318 mg/kg feed (anticipated 3 mg/kg daily), 24 hr", "value": 1021.17}, {"measurement": "average plasma concentration of isoxazoline", "setting": "[1]; Group 4 - 318 mg/kg feed (anticipated 3 mg/kg daily), 48 hr", "value": 2011.67}, {"measurement": "average plasma concentration of isoxazoline", "setting": "[1]; Group 4 - 318 mg/kg feed (anticipated 3 mg/kg daily), 96 hr", "value": 3928.33}, {"measurement": "average plasma concentration of isoxazoline", "setting": "[1]; Group 4 - 318 mg/kg feed (anticipated 3 mg/kg daily), 168 hr", "value": 6461.67}, {"measurement": "average plasma concentration of isoxazoline", "setting": "[1]; Group 4 - 318 mg/kg feed (anticipated 3 mg/kg daily), 240 hr", "value": 8696.67}, {"measurement": "average plasma concentration of isoxazoline", "setting": "[1]; Group 4 - 318 mg/kg feed (anticipated 3 mg/kg daily), 336 hr", "value": 11600.00}, {"measurement": "Mivorilaner Concentration", "setting": "[2]", "value": "BLQ"}]}]}
